According to patent US9365541B2, “Compounds for use in the treatment of parasitic diseases” (IRBM—SCIENCE PARK S.P.A., priority 2012, dated 2016):
pEC50, pIC50: −log10 of the molar value.

Assays:
[1] = system: Plasmodium falciparum 3D7; assay: P. falciparum growth inhibition assay (Pf-LDH); type: cell-based; conditions: Plasmodium falciparum, Erythrocyte; P. falciparum 3D7 infected erythrocytes, 72 h incubation, PfLDH readout
Outline: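 P. falciparum 3D7 (chloroquine-sensitive) at 0.25% parasitemia and 2% hematocrit was incubated with compound for 72 h at 37° C under 4% CO2/3% O2/93% N2. After freeze-thaw, PfLDH activity was read at 650 nm with lactate/APAD/NBT/diaphorase mix (pH 8.0).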

human HDAC1 = molecular target: T1, human HDAC1 (Homo sapiens, UniProt Q13547); assay: Homo sapiens HDAC1 inhibition assay (Fluor-de-Lys, enzymatic); type: biochemical; conditions: human HDAC enzymatic assay; read-out: hHDAC IC50
T1 construct: made in house; host or cells: HeLa (ATCC CCL-2), mammalian cells
T1 sequence (Q13547 whole entry): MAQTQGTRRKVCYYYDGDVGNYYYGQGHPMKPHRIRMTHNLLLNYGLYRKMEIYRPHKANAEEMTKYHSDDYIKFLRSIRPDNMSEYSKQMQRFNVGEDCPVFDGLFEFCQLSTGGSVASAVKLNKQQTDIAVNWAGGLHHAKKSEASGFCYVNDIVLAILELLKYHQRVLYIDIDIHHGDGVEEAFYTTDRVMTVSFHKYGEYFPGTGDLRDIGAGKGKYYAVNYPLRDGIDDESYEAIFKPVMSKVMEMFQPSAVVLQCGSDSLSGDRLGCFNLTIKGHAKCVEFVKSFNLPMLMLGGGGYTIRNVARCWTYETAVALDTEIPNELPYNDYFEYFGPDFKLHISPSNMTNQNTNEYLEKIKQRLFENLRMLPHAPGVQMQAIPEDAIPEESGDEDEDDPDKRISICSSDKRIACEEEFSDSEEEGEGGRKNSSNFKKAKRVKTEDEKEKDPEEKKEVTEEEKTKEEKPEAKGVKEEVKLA
Outline: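 Product developed with trypsin developer containing 2 μM TSA to stop the reaction; fluorescence measures deacetylase activity, inversely related to inhibition.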

pEC50 [1] | pIC50 (human HDAC1) | SMILES
5.30 to 6.00 | 5.30 to 6.00 | CNC(=O)CCCCC[C@H](NC(=O)c1cnc(CN2CCCC2)s1)c1ncc(-c2ccc(-n3cccn3)cc2)[nH]1 [Entry 141, (S)-N-(1-(5-(4-(1H-pyrazol-1-yl)phenyl)-1H-imidazol-2-yl)-7-(methylamino)-7-oxoheptyl)-2-(pyrrolidin-1-ylmethyl)thiazole-5-carboxamide]
5.30 to 6.00 | 5.30 to 6.00 | CNC(=O)CCCCC[C@H](NC(=O)CCc1nc2ccccc2s1)c1ncc(-c2ccc(-n3cccn3)cc2)[nH]1 [Entry 142, (S)-7-(5-(4-(1H-pyrazol-1-yl)phenyl)-1H-imidazol-2-yl)-7-(3-(benzo[d]thiazol-2-yl)propanamido)-N-methylheptanamide]
> 6.00 | > 6.00 | CNC(=O)CCCCC[C@H](NC(=O)c1cncs1)c1ncc(-c2ccc3ccncc3c2)[nH]1 [Entry 143, (S)-N-(1-(5-(isoquinolin-7-yl)-1H-imidazol-2-yl)-7-(methylamino)-7-oxoheptyl)thiazole-5-carboxamide]
< 5.30 | < 5.30 | CNC(=O)CCCCC[C@H](NC(=O)c1cn2ccccc2n1)c1ncc(-c2ccc3ccccc3c2)[nH]1 [Entry 144, (S)-N-(7-(methylamino)-1-(5-(naphthalen-2-yl)-1H-imidazol-2-yl)-7-oxo-heptyl)imidazo[1,2-a]pyridine-2-carboxamide]
5.30 to 6.00 | 5.30 to 6.00 | CNC(=O)CCCCC[C@H](NC(=O)C1CCC1(F)F)c1ncc(-c2ccc3ccncc3c2)[nH]1 (stereo partly drawn) [Entry 145, 2,2-difluoro-N-((S)-1-(5-(isoquinolin-7-yl)-1H-imidazol-2-yl)-7-(methylamino)-7-oxo-heptyl)cyclobutane-carboxamide]
5.30 to 6.00 | 5.30 to 6.00 | CNC(=O)CCCCC[C@H](NC(=O)Cc1csc2nccn12)c1ncc(-c2ccc(-c3ccn(C)n3)cc2)[nH]1 [Entry 146, (S)-7-(2-(imidazo[2,1-b]thiazol-3-yl)acetamido)-N-methyl-7-(5-(4-(1-methyl-1H-pyrazol-3-yl)phenyl)-1H-imidazol-2-yl)heptanamide]
5.30 to 6.00 | 5.30 to 6.00 | CNC(=O)CCCCC[C@H](NC(=O)c1cncs1)c1ncc(-c2cccc3ccoc23)[nH]1 [Entry 147, (S)-N-(1-(5-(benzofuran-7-yl)-1H-imidazol-2-yl)-7-(methylamino)-7-oxoheptyl)thiazole-5-carboxamide]
> 6.00 | > 6.00 | CNC(=O)CCCCC[C@H](NC(=O)Cc1c(C)[nH]c2ccc(OC)cc12)c1nnc(-c2ccc3ccccc3c2)[nH]1 [Entry 148, (S)-7-(2-(5-methoxy-2-methyl-1H-indol-3-yl)acetamido)-N-methyl-7-(5-(naphthalen-2-yl)-4H-1,2,4-triazol-3-yl)heptanamide]
> 6.00 | > 6.00 | CCc1nc2ccccc2n1CCC(=O)N[C@@H](CCCCCC(=O)NC)c1ncc(-c2ccc3ccccc3c2)[nH]1 [Entry 150, (S)-7-(3-(2-ethyl-1H-benzo[d]imidazol-1-yl)propanamido)-N-methyl-7-(5-(naphthalen-2-yl)-1H-imidazol-2-yl)heptanamide]
5.30 to 6.00 | > 6.00 | CNC(=O)CCCCC[C@H](NC(=O)Cn1c(=O)ncc2ccccc21)c1ncc(-c2ccc3ccccc3c2)[nH]1 [Entry 151]
5.30 to 6.00 | 5.30 to 6.00 | CNC(=O)CCCCC[C@H](NC(=O)CC1=CSC2=NCCCN12)c1ncc(-c2ccc3ccncc3c2)[nH]1 [Entry 155, (S)-7-(2-(6,7-dihydro-5H-thiazolo[3,2-a]pyrimidin-3-yl)acetamido)-7-(5-(isoquinolin-7-yl)-1H-imidazol-2-yl)-N-methyl-heptanamide]
5.30 to 6.00 | < 5.30 | CNC(=O)CCCCC[C@H](NC(=O)c1cccc(-n2cccn2)c1)c1ncc(-c2cc3ccccc3nc2OC)[nH]1 [Entry 156, (S)-N-(1-(5-(2-methoxyquinolin-3-yl)-1H-imidazol-2-yl)-7-(methylamino)-7-oxoheptyl)-3-(1H-pyrazol-1-yl)benzamide]
< 5.30 | < 5.30 | CNC(=O)CCCCC[C@H](NC(=O)Cn1ccnn1)c1ncc(-c2ccc3[nH]ncc3c2)[nH]1 [Entry 157, (S)-7-(2-(1H-1,2,3-triazol-1-yl)acetamido)-7-(5-(1H-indazol-5-yl)-1H-imidazol-2-yl)-N-methyl-heptanamide]
> 6.00 | 5.30 to 6.00 | CNC(=O)CCCCC[C@H](NC(=O)c1cncs1)c1ncc(-c2ccc(-c3ccn(C)n3)cc2)[nH]1 [Entry 158]
< 5.30 | < 5.30 | CNC(=O)CCCCC[C@H](NC(=O)c1cncs1)c1ncc(-c2cnc3[nH]ncc3c2)[nH]1 [Entry 159, (S)-N-(1-(5-(1H-pyrazolo[3,4-b]pyridin-5-yl)-1H-imidazol-2-yl)-7-(methylamino)-7-oxoheptyl)thiazole-5-carboxamide]
> 6.00 | 5.30 to 6.00 | CNC(=O)CCCCC[C@H](NC(=O)c1cncs1)c1ncc(-c2ccc3[nH]ncc3c2)[nH]1 [Entry 160, (S)-N-(1-(5-(1H-indazol-5-yl)-1H-imidazol-2-yl)-7-(methylamino)-7-oxoheptyl)thiazole-5-carboxamide]
5.30 to 6.00 | 5.30 to 6.00 | CNC(=O)CCCCC[C@H](NC(=O)c1cncs1)c1ncc(-c2ccc3sccc3c2)[nH]1 [Entry 161, (S)-N-(1-(5-(benzo[b]thiophen-5-yl)-1H-imidazol-2-yl)-7-(methylamino)-7-oxoheptyl)thiazole-5-carboxamide]
< 5.30 | < 5.30 | CNC(=O)CCCCC[C@H](NC(=O)C1CCN(C)CC1)c1ncc(-c2ccc(-n3cccn3)cc2)[nH]1 [Entry 162]
5.30 to 6.00 | 5.30 to 6.00 | CNC(=O)CCCCC[C@H](NC(=O)Cc1cnc2ccccn12)c1ncc(-c2ccc(-n3cccn3)cc2)[nH]1 [Entry 163, (S)-7-(5-(4-(1H-pyrazol-1-yl)phenyl)-1H-imidazol-2-yl)-7-(2-(imidazo[1,2-a]pyridin-3-yl)acetamido)-N-methylheptanamide]
< 5.30 | < 5.30 | CNC(=O)CCCCC[C@H](NC(=O)c1cn2ccsc2n1)c1ncc(-c2ccc3ccccc3c2)[nH]1 [Entry 164, (S)-N-(7-(methylamino)-1-(5-(naphthalen-2-yl)-1H-imidazol-2-yl)-7-oxo-heptyl)imidazo[2,1-b]thiazole-6-carboxamide]
< 5.30 | 5.30 to 6.00 | CNC(=O)CCCCC[C@H](NC(=O)CN1CCN(C)CC1)c1ncc(-c2ccc3ccccc3c2)[nH]1 [Entry 165, (S)-N-methyl-7-(2-(4-methylpiperazin-1-yl)acetamido)-7-(5-(naphthalen-2-yl)-1H-imidazol-2-yl)heptanamide]
5.30 to 6.00 | 5.30 to 6.00 | CNC(=O)CCCCC[C@H](NC(=O)C1CNC(=O)C1)c1ncc(-c2ccc3ccccc3c2)[nH]1 (stereo partly drawn) [Entry 166, N-((S)-7-(methylamino)-1-(5-(naphthalen-2-yl)-1H-imidazol-2-yl)-7-oxoheptyl)-5-oxopyrrolidine-3-carboxamide]
5.30 to 6.00 | 5.30 to 6.00 | CNC(=O)CCCCC[C@H](NC(=O)CCc1nnc(C)[nH]1)c1ncc(-c2ccc3ccncc3c2)[nH]1 [Entry 167]
5.30 to 6.00 | 5.30 to 6.00 | CNC(=O)CCCCC[C@H](NC(=O)Cc1cn2ccsc2n1)c1ncc(-c2ccc3ccncc3c2)[nH]1 [Entry 168, (S)-7-(2-(imidazo[2,1-b]thiazol-6-yl)acetamido)-7-(5-(isoquinolin-7-yl)-1H-imidazol-2-yl)-N-methyl-heptanamide]
5.30 to 6.00 | > 6.00 | CNC(=O)CCCCC[C@H](NC(=O)Cn1cc2ccccc2n1)c1ncc(-c2ccc(-c3ccn(C)n3)cc2)[nH]1 [Entry 169, (S)-7-(2-(2H-indazol-2-yl)acetamido)-N-methyl-7-(5-(4-(1-methyl-1H-pyrazol-3-yl)phenyl)-1H-imidazol-2-yl)heptanamide]
5.30 to 6.00 | 5.30 to 6.00 | CNC(=O)CCCCC[C@H](NC(=O)C1CC1c1ccncc1)c1ncc(-c2ccc(-c3ccn(C)n3)cc2)[nH]1 (stereo partly drawn) [Entry 170, N-((S)-1-(5-(4-(1-methyl-1H-pyrazol-3-yl)phenyl)-1H-imidazol-2-yl)-7-(methylamino)-7-oxoheptyl)-2-(pyridin-4-yl)cyclopropane-carboxamide]
< 5.30 | < 5.30 | CNC(=O)CCCCC[C@H](NC(=O)Cn1ccc(C)n1)c1ncc(-c2ccc(-c3ccn(C)n3)cc2)[nH]1 [Entry 171, (S)-N-methyl-7-(2-(3-methyl-1H-pyrazol-1-yl)acetamido)-7-(5-(4-(1-methyl-1H-pyrazol-3-yl)phenyl)-1H-imidazol-2-yl)heptanamide]
> 6.00 | 5.30 to 6.00 | CNC(=O)CCCCC[C@H](NC(=O)c1cncs1)c1ncc(-c2ccc(-n3cccn3)cc2)[nH]1 [Entry 172, (S)-N-(1-(5-(4-(1H-pyrazol-1-yl)phenyl)-1H-imidazol-2-yl)-7-(methylamino)-7-oxoheptyl)thiazole-5-carboxamide]

SMILES | pEC50 [1] | pIC50 (human HDAC1)
CNC(=O)CCCCC[C@H](NC(=O)C12CCN(CC1)CC2)c1ncc(-c2ccc3ncccc3c2)[nH]1 [Entry 152] | 5.30 to 6.00 | > 6.00
CNC(=O)CCCCC[C@H](NC(=O)C12CCN(CC1)CC2)c1ncc(-c2ccc3cc(OC)ccc3c2)[nH]1 [Entry 153, (S)-N-(1-(5-(6-methoxynaphthalen-2-yl)-1H-imidazol-2-yl)-7-(methylamino)-7-oxo-heptyl)quinuclidine-4-carboxamide] | > 6.00 | > 6.00
CNC(=O)CCCCC[C@H](NC(=O)C12CCN(CC1)CC2)c1ncc(-c2ccc3cc(F)ccc3c2)[nH]1 [Entry 154, (S)-N-(1-(5-(6-fluoronaphthalen-2-yl)-1H-imidazol-2-yl)-7-(methylamino)-7-oxo-heptyl)quinuclidine-4-carboxamide] | > 6.00 | > 6.00
